*1 amine or outer side, *2 acyl side, *3 side chain or, on linkers, in order; H or OH if unused. Where a SMILES comes first, the peptide text is derived from it. [ ]: non-standard residue; d: D form. The star is where a group is joined. GluureaLys(ε-3-ClBenzyl) = O=C(O)CC[C@H](NC(=O)N[C@@H](CCCCN(Cc1cccc(Cl)c1)*)C(=O)O)C(=O)O; Dolaproine = CO[C@@H]([C@@H]1CCCN1)[C@@H](C)C(=O)O; Dil = CC[C@H](C)[C@H](NC)[C@@H](CC(=O)O)OC; X1 = O=C(CCCc1cn(CCCN[*:1])nn1)[*:2]; PABC = O=C(OCc1ccc(N[*:1])cc1)[*:2]; X2 = C[C@@H](N*)[C@@H](O)c1ccccc1; Cit = NC(=O)NCCC[C@H](N)C(=O)O; Suc = O=C(CCC(=O)[*:2])[*:1]; NMeV = CN[C@H](C(=O)O)C(C)C; Ahx = NCCCCCC(=O)O
What was measured:
Salmonella typhimurium [1] = experiment: Mutagenecity in Salmonella typhimurium TA100 without metabolic activation system at 1 ug/ml by Ames test; assay type: toxicity, organism-based; conditions: salmonella enterica subsp. enterica serovar typhimurium; dose 1 µg/ml
[2] = Toxicity in rabbit assessed as morphological changes in brain sulcus at 81 to 122 microg/kg, iv; assay type: tissue-based, Oryctolagus cuniculus; conditions: in vivo, dose 81-122 µg/kg
Salmonella typhimurium [3] = experiment: Mutagenecity in Salmonella typhimurium TA100 without metabolic activation system at 100 ug/ml by Ames test; assay type: toxicity, organism-based; conditions: salmonella enterica subsp. enterica serovar typhimurium; dose 100 µg/ml
Salmonella typhimurium [4] = experiment: Mutagenecity in Salmonella typhimurium TA98 in presence of metabolic activation system at 1 ug/ml by Ames test; assay type: toxicity, organism-based; conditions: salmonella enterica subsp. enterica serovar typhimurium; dose 1 µg/ml
[5] = Toxicity in rabbit assessed as change in body weight at 0.3 mg/kg, iv measured after 20 days; assay type: organism-based, Oryctolagus cuniculus; conditions: in vivo, 480 h, time 20 day
[6] = Toxicity in rabbit assessed as morphological changes in duodenum at 81 to 122 microg/kg, iv; assay type: tissue-based, Oryctolagus cuniculus; conditions: in vivo, dose 81-122 µg/kg
Salmonella typhimurium [7] = experiment: Mutagenecity in Salmonella typhimurium TA97 without metabolic activation system at 100 ug/ml by Ames test; assay type: toxicity, organism-based; conditions: salmonella enterica subsp. enterica serovar typhimurium; dose 100 µg/ml
[8] = Toxicity in rat assessed as morphological changes in lungs at 150 to 225 microg/kg, iv; conditions: in vivo, dose 150-225 µg/kg
[9] = Toxicity in rat assessed as morphological changes in heart muscle at 150 to 225 microg/kg, iv; assay type: tissue-based; conditions: in vivo, dose 150-225 µg/kg
[10] = Toxicity in rabbit assessed as morphological changes in diameter of aorta at 81 to 122 microg/kg, iv; assay type: tissue-based, Oryctolagus cuniculus; conditions: in vivo, dose 81-122 µg/kg
Salmonella typhimurium [11] = experiment: Mutagenecity in Salmonella typhimurium TA98 without metabolic activation system at 100 ug/ml by Ames test; assay type: toxicity, organism-based; conditions: salmonella enterica subsp. enterica serovar typhimurium; dose 100 µg/ml
[12] = Toxicity in rat assessed as morphological changes in lumen of trachea at 150 to 225 microg/kg, iv; assay type: tissue-based; conditions: in vivo, dose 150-225 µg/kg
[13] = Toxicity in rabbit assessed as morphological changes in lungs at 81 to 122 microg/kg, iv; set-up: species or system Oryctolagus cuniculus; conditions: in vivo, dose 81-122 µg/kg
Salmonella typhimurium [14] = experiment: Mutagenecity in Salmonella typhimurium TA97 without metabolic activation system at 10 ug/ml by Ames test; assay type: toxicity, organism-based; conditions: salmonella enterica subsp. enterica serovar typhimurium; dose 10 µg/ml
[15] = Toxicity in rabbit morphological change in tongue at 81 to 122 microg/kg, iv; assay type: tissue-based, Oryctolagus cuniculus; conditions: in vivo, dose 81-122 µg/kg
[16] = Clearance in Wistar rat at 1.5 mg/kg, iv; assay type: ADME, organism-based; conditions: in vivo
Salmonella typhimurium [17] = experiment: Mutagenecity in Salmonella typhimurium TA100 in presence of metabolic activation system at 100 ug/ml by Ames test; assay type: toxicity, organism-based; conditions: salmonella enterica subsp. enterica serovar typhimurium; dose 100 µg/ml
[18] = Toxicity in rat assessed as morphological changes in brain sulcus at 150 to 225 microg/kg, iv; assay type: tissue-based; conditions: in vivo, dose 150-225 µg/kg
[19] = Toxicity in rat assessed as morphological changes in duodenum at 150 to 225 microg/kg, iv; assay type: tissue-based; conditions: in vivo, dose 150-225 µg/kg
[20] = Chronic toxicity in rabbit assessed as increase in stomach weight at 5.4 microg/kg, iv; assay type: tissue-based, Oryctolagus cuniculus; conditions: in vivo, 0.0054 mg/kg, dose 5.4 µg/kg
[21] = Chronic toxicity in rat assessed as mortality rate at 10 microg/kg, iv dosed measured after 3 days; assay type: organism-based; conditions: in vivo, 0.01 mg/kg, dose 10 µg/kg, time 3 day, read-out: Activity
Salmonella typhimurium [22] = experiment: Mutagenecity in Salmonella typhimurium TA100 without metabolic activation system at 1000 ug/ml by Ames test; assay type: toxicity, organism-based; conditions: salmonella enterica subsp. enterica serovar typhimurium; dose 1000 µg/ml
Cytochrome P450 2C8 [23] = target: T1, Cytochrome P450 2C8 (Homo sapiens, UniProt P10632); experiment: Inhibition of CYP2C8 in human liver microsome using paclitaxel as substrate; assay type: ADME, microsomes
T1 sequence (P10632 whole entry): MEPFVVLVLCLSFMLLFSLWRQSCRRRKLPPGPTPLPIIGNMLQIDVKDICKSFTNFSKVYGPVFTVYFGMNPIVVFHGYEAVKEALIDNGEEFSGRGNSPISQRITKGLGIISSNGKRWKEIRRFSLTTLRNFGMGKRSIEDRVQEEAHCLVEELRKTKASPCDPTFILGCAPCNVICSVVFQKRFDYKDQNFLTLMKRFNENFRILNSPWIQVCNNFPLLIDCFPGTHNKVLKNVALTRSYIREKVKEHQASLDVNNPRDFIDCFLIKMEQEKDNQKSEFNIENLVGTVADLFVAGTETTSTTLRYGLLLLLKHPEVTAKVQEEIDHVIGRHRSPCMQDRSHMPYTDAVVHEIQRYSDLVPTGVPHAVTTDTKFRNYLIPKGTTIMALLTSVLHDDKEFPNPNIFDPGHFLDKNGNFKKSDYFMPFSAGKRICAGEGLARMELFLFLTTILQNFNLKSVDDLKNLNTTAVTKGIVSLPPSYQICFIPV

[24] = Antitumor activity against human PC-3 cells xenografted in mouse assessed as tumour growth inhibition at 0.3 mg/kg, ip daily treated for 5 days after 18 days of tumor implantation measured upto 15 days; assay type: functional; conditions: PC-3, ip, 120 h, time 5 day, read-out: TGI
Cytochrome P450 2C9 = Cytochrome P450 2C9 (Homo sapiens, UniProt P11712); experiment: Inhibition of CYP2C9 in human liver microsome using tolbutamide as substrate; assay type: ADME, microsomes
Chain of Cytochrome P450 2C9 (P11712 whole entry): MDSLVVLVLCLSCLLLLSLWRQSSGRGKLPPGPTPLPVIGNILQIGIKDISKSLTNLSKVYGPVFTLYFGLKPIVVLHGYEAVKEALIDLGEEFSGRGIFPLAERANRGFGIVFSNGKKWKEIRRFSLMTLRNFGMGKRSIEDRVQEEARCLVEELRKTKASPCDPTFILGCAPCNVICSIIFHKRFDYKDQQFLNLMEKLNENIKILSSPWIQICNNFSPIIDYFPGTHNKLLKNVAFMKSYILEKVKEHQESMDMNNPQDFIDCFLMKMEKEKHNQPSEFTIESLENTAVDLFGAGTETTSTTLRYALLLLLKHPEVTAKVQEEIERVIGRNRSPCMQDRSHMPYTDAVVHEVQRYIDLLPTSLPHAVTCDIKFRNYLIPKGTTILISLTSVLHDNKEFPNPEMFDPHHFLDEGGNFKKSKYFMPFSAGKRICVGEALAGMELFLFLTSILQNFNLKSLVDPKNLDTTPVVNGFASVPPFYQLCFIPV

[25] = Toxicity in rabbit assessed as morphological changes in cerebrum at 81 to 122 microg/kg, iv; assay type: tissue-based, Oryctolagus cuniculus; conditions: in vivo, dose 81-122 µg/kg
[26] = Elimination rate constant in Wistar rat at 1.5 mg/kg, iv; assay type: ADME, organism-based; conditions: in vivo
[27] = Toxicity in rabbit assessed as local irritation in testes at 81 to 122 microg/kg, iv; set-up: species or system Oryctolagus cuniculus; conditions: in vivo, dose 81-122 µg/kg
Cytochrome P450 2C8 [28] = target: T1, Cytochrome P450 2C8; experiment: Drug metabolism assessed as human liver microsome CYP2C8-mediatd metabolism; assay type: ADME; conditions: microsomes
[29] = Mean residence time in rabbit at 0.81 mg/kg, iv; assay type: ADME, organism-based, Oryctolagus cuniculus; conditions: in vivo
[30] = Toxicity in rabbit assessed as morphological changes in loops of colon at 81 to 122 microg/kg, iv; assay type: tissue-based, Oryctolagus cuniculus; conditions: in vivo, dose 81-122 µg/kg
[31] = Toxicity in rabbit assessed as morphological changes in testes at 81 to 122 microg/kg, iv; set-up: species or system Oryctolagus cuniculus; conditions: in vivo, dose 81-122 µg/kg
[32] = Toxicity in rat assessed as morphological changes in urinary bladder at 150 to 225 microg/kg, iv; conditions: in vivo, dose 150-225 µg/kg
[33] = Stability of the compound in mouse liver microsome assessed as half life; assay type: ADME; conditions: liver microsomes
Cytochrome P450 2C19 = Cytochrome P450 2C19 (Homo sapiens, UniProt P33261); experiment: Drug metabolism assessed as human liver microsome CYP2C19-mediatd metabolism; assay type: ADME; conditions: microsomes
Chain of Cytochrome P450 2C19 (P33261 whole entry): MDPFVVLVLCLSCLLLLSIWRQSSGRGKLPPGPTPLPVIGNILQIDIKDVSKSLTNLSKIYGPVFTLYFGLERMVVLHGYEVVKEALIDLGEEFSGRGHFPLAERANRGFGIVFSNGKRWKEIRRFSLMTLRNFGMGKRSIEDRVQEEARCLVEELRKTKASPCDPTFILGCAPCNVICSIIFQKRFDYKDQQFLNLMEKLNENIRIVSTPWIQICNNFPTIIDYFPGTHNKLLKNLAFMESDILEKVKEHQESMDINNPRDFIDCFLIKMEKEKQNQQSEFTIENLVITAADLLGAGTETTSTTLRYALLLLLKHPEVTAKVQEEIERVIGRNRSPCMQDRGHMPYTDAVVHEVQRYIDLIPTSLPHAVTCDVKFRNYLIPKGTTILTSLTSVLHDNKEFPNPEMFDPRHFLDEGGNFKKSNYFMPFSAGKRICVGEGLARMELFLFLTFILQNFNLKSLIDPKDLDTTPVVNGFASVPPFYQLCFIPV

Salmonella typhimurium [34] = experiment: Mutagenecity in Salmonella typhimurium TA98 without metabolic activation system at 10000 ug/ml by Ames test; assay type: toxicity, organism-based; conditions: salmonella enterica subsp. enterica serovar typhimurium; dose 10000 µg/ml
[35] = Toxicity in rabbit assessed as morphological changes in heart muscle at 81 to 122 microg/kg, iv; assay type: tissue-based, Oryctolagus cuniculus; conditions: in vivo, dose 81-122 µg/kg
[36] = Toxicity in rabbit assessed as morphological changes in liver at 81 to 122 microg/kg, iv; assay type: tissue-based, Oryctolagus cuniculus; conditions: in vivo, dose 81-122 µg/kg
[37] = Toxicity in rabbit assessed as morphological changes in lumen of trachea at 81 to 122 microg/kg, iv; assay type: tissue-based, Oryctolagus cuniculus; conditions: in vivo, dose 81-122 µg/kg
[38] = Chronic toxicity in rabbit assessed as decrease in the blood lymphocyte count at […], iv administered once every 3 weeks for 3 months; assay type: organism-based, Oryctolagus cuniculus; conditions: in vivo, 504 h, dose lower 81 mg/kg

Structure (SMILES): CC[C@H](C)[C@@H]([C@@H](CC(=O)N1CCC[C@H]1[C@H](OC)[C@@H](C)C(=O)N[C@H](C)[C@@H](O)c1ccccc1)OC)N(C)C(=O)[C@@H](NC(=O)[C@H](C(C)C)N(C)C(=O)OCc1ccc(NC(=O)[C@H](CCCNC(N)=O)NC(=O)[C@@H](NC(=O)CCCc2cn(CCCNC(=O)[C@H](Cc3ccc(O)cc3)NC(=O)[C@H](Cc3ccccc3)NC(=O)CCC(=O)NCCCCCC(=O)N(CCCC[C@H](NC(=O)N[C@@H](CCC(=O)O)C(=O)O)C(=O)O)Cc3cccc(Cl)c3)nn2)C(C)C)cc1)C(C)C ({GluureaLys(ε-3-ClBenzyl)-Ahx-Suc}-FY[X1]V[Cit][PABC][NMeV]V[Dil][Dolaproine]-X2)
- Activity (Salmonella typhimurium [1]): Non-Toxic
- Activity [2]: Non-Toxic
- Activity (Salmonella typhimurium [3]): Non-Toxic
- Activity (Salmonella typhimurium [4]): Non-Toxic
- Activity [5]: Non-Toxic
- Activity [6]: Non-Toxic
- Activity (Salmonella typhimurium [7]): Non-Toxic
- Activity [8]: Non-Toxic
- Activity [9]: Non-Toxic
- Activity [10]: Non-Toxic
- Activity (Salmonella typhimurium [11]): Non-Toxic
- Activity [12]: Non-Toxic
- Activity [13]: Non-Toxic
- Activity (Salmonella typhimurium [14]): Non-Toxic
- Activity [15]: Non-Toxic
- clearance [16]: 0.019 L/h/kg
- Activity (Salmonella typhimurium [17]): Non-Toxic
- Activity [18]: Non-Toxic
- Activity [19]: Non-Toxic
- Activity [20]: Toxic
- mortality at 72 h [21]: 90%
- Activity (Salmonella typhimurium [22]): Non-Toxic
- IC50 (Cytochrome P450 2C8 [23]): > 25 µM
- inhibition in vivo at 0.3 mg/kg [24]: 37.7%
- IC50 (Cytochrome P450 2C9): > 25 µM
- Activity [25]: Non-Toxic
- k el [26]: 4.17e-05 s⁻¹
- Activity [27]: Non-Toxic
- Drug metabolism (Cytochrome P450 2C8 [28]): Metabolite_Notdetected
- MRT [29]: 3.4 h
- Activity [30]: Non-Toxic
- Activity [31]: Non-Toxic
- Activity [32]: Non-Toxic
- half-life [33]: 0.457 h
- Drug metabolism (Cytochrome P450 2C19): Metabolite_Notdetected
- Activity (Salmonella typhimurium [34]): Non-Toxic
- Activity [35]: Non-Toxic
- Activity [36]: Non-Toxic
- Activity [37]: Non-Toxic
- Activity [38]: Toxic
